Measurements as given in patent US11345912B2, “Directed evolution of multivalent glycopeptides that tightly bind to target proteins” (Brandeis University, priority 2013, dated 2022).

System: 2G12
Assay: Binding curve and KD determination of 2G12-glycopeptide interaction (radiolabeled glycopeptide, protein G magnetic bead capture, scintillation counting)
Procedure: The resulting mRNAs were purified by denaturing PAGE or MEGAclear kit (Ambion), and 1 μM RNA was used in PURE system translation (reaction volume of translation varied). Typically, 25 μL of translated reaction was diluted with 100 μL of binding buffer (50 mM Tris-HCl, pH 7.8, 300 mM NaCl, 5 mM β-mercaptoethanol) and 25 μL of Ni-NTA agarose suspension (Qiagen), and tumbled at room temperature for 1 h. The resins were transferred to 0.22 μm spin-filter rinsing with 100 μL of bind buffer, and washed with 3×200 μL of bind buffer and 2×200 μL of wash buffer (50 mM Tris-HCl, pH 7.8, 5 mM β-mercaptoethanol). The bound peptides were eluted with 2×25 μL of 0.1% TFA. The eluted peptides were analyzed by MALDI-TOF MS, using α-Cyano-4-hydroxycinnamic acid matrix (Sigma), with or without desalting with ZipTip C18 resin (Millipore). For calibration of MALDI-TOF-MS, at least two of the following standards, bovine insulin, E. coli thioredoxin and/or horse apomyoglobin were used. To quantitate peptide yields, the radioactivities were measured by liquid scintillation counting. For the click reaction, the translated and purified peptides were mixed with 0.1% (v/v) Triton X-100, and then dialyzed against H2O containing 0.1% (v/v) Triton X-100 using Slide-A-Lyzer MINI Dialysis Devices, 3.5K MWCO (Thermo Scientific) overnight to desalt. After dialysis, the peptides were divided into two portions: one was glycosylated via the click reaction, while the other was saved as a non-glycosylated peptide control. […] The glycosylated peptide (<4 pmol) was incubated with 100 nM 2G12 in selection buffer (40 μL) at room temp. The solution was then tumbled 30 min with 0.12 mg of equilibrated Dynabeads Protein G to capture 2G12-glycopeptide complex. Beads were then washed with 3×40 μL of selection buffer and resuspended in 10 μL of selection buffer. The resuspended beads were heated at 70° C. for 30 min to denature 2G12 and elute glycopeptides, chilled on ice for 5 min, and tumbled at room temperature for 10 min. The magnetically isolated supernatant was recovered and the beads were rinsed with 10 μL of selection buffer.
Then, the solution was added to 0.12 mg of pre-equilibrated Dynabeads Protein G and tumbled at room temperature for 30 min. The supernatant was removed and the beads were washed with 3×40 μL of selection buffer. The radioactivities of the supernatant and wash solutions were measured by liquid scintillation counting as unbound fractions. […] The beads were resuspended in 40 μL of selection buffer, heated at 70° C. for 30 min to elute the bound glycopeptides, chilled on ice for 5 min, and tumbled at room temperature for 10 min. The supernatant was removed, and the beads were washed with 40 μL of selection buffer and resuspended in 40 μL of selection buffer. The radioactivities of these solutions and suspensions were measured by liquid scintillation counting separately and the values were combined as apparent bound fractions. […] All experiments were done at least in triplicate. KDs were calculated as described in the footnote of Table 4 (below).

SMILES | Fmax [%] (Table 6 mutational analysis, radioactive bead binding assay) | Kd (Table 6 mutational analysis, radioactive bead binding assay, ribosomally translated) | Fmax [%] (Table 4, maximal fraction bound from curve fit, error = standard error of fit) | Kd (Table 4, ribosomally translated radiolabeled glycopeptide with His6/FLAG tag, room temperature, fit Fbound=(Fmax[2G12])/(KD+[2G12]), error = standard error of fit)
CC[C@H](C)[C@H](NC(=O)[C@H](CCCNC(=N)N)NC(=O)[C@H](CCCNC(=N)N)NC(=O)CNC(=O)[C@H](CC(=O)O)NC(=O)[C@H](CC(N)=O)NC(=O)[C@H](CC(C)C)NC(=O)[C@@H](NC(=O)[C@H](CCc1cn(C2CCC(OC3O[C@H](CO[C@H]4O[C@H](CO[C@H]5O[C@H](CO)[C@@H](O)[C@H](O)[C@@H]5O[C@H]5O[C@H](CO)[C@@H](O)[C@H](O)[C@@H]5O)[C@@H](O)[C@H](O[C@H]5O[C@H](CO)[C@@H](O)[C@H](O)[C@@H]5O[C@H]5O[C@H](CO)[C@@H](O)[C@H](O)[C@@H]5O)[C@@H]4O)[C@@H](O)[C@H](O[C@H]4O[C@H](CO)[C@@H](O)[C@H](O)[C@@H]4O[C@H]4O[C@H](CO)[C@@H](O)[C@H](O)[C@@H]4O[C@H]4O[C@H](CO)[C@@H](O)[C@H](O)[C@@H]4O)[C@@H]3O)CC2)nn1)NC=O)C(C)C)C(=O)N[C@H](C(=O)N[C@@H](CCC(N)=O)C(=O)N[C@@H](CCc1cn(C2CCC(OC3O[C@H](CO[C@H]4O[C@H](CO[C@H]5O[C@H](CO)[C@@H](O)[C@H](O)[C@@H]5O[C@H]5O[C@H](CO)[C@@H](O)[C@H](O)[C@@H]5O)[C@@H](O)[C@H](O[C@H]5O[C@H](CO)[C@@H](O)[C@H](O)[C@@H]5O[C@H]5O[C@H](CO)[C@@H](O)[C@H](O)[C@@H]5O)[C@@H]4O)[C@@H](O)[C@H](O[C@H]4O[C@H](CO)[C@@H](O)[C@H](O)[C@@H]4O[C@H]4O[C@H](CO)[C@@H](O)[C@H](O)[C@@H]4O[C@H]4O[C@H](CO)[C@@H](O)[C@H](O)[C@@H]4O)[C@@H]3O)CC2)nn1)C(=O)N[C@@H](CO)C(=O)N[C@@H](CS)C(=O)N[C@@H](CCC(=O)O)C(=O)N[C@@H](CC(C)C)C(=O)N1CCC[C@H]1C(=O)N[C@@H](CCc1cn(C2CCC(OC3O[C@H](CO[C@H]4O[C@H](CO[C@H]5O[C@H](CO)[C@@H](O)[C@H](O)[C@@H]5O[C@H]5O[C@H](CO)[C@@H](O)[C@H](O)[C@@H]5O)[C@@H](O)[C@H](O[C@H]5O[C@H](CO)[C@@H](O)[C@H](O)[C@@H]5O[C@H]5O[C@H](CO)[C@@H](O)[C@H](O)[C@@H]5O)[C@@H]4O)[C@@H](O)[C@H](O[C@H]4O[C@H](CO)[C@@H](O)[C@H](O)[C@@H]4O[C@H]4O[C@H](CO)[C@@H](O)[C@H](O)[C@@H]4O[C@H]4O[C@H](CO)[C@@H](O)[C@H](O)[C@@H]4O)[C@@H]3O)CC2)nn1)C(=O)N[C@H](C(=O)N[C@@H](CCCNC(=N)N)C(=O)N[C@@H](CCCNC(=N)N)C(=O)N[C@@H](CO)C(=O)NCC(=O)N[C@@H](CO)C(=O)NCC(=O)N[C@@H](CO)C(=O)N[C@@H](CC(C)C)C(=O)NCC(=O)N[C@@H](Cc1c[nH]cn1)C(=O)N[C@@H](Cc1c[nH]cn1)C(=O)N[C@@H](Cc1c[nH]cn1)C(=O)N[C@@H](Cc1c[nH]cn1)C(=O)N[C@@H](Cc1c[nH]cn1)C(=O)N[C@@H](Cc1c[nH]cn1)C(=O)N[C@@H](CCCNC(=N)N)C(=O)N[C@@H](CC(=O)O)C(=O)N[C@@H](Cc1ccc(O)cc1)C(=O)N[C@@H](CCCCN)C(=O)N[C@@H](CC(=O)O)C(=O)N[C@@H](CC(=O)O)C(=O)N[C@@H](CC(=O)O)C(=O)N[C@@H](CC(=O)O)C(=O)N[C@@H](CCCCN)C(=O)O)C(C)C)C(C)C (stereo partly shown) [Clone 10F5-Δ11, XVLNDGRRIVQXSCELPXVRRS] | 17% | > 200 nM |  | 
CC[C@H](C)[C@H](NC(=O)[C@H](CCCNC(=N)N)NC(=O)[C@@H]1CCCN1C(=O)[C@H](CC(=O)O)NC(=O)[C@H](CCC(=O)O)NC(=O)[C@@H](NC(=O)[C@H](C)NC(=O)[C@H](Cc1ccc(O)cc1)NC(=O)[C@H](CCC(N)=O)NC(=O)[C@H](CCc1cn(C2CCC(OC3O[C@H](CO[C@H]4O[C@H](CO[C@H]5O[C@H](CO)[C@@H](O)[C@H](O)[C@@H]5O[C@H]5O[C@H](CO)[C@@H](O)[C@H](O)[C@@H]5O)[C@@H](O)[C@H](O[C@H]5O[C@H](CO)[C@@H](O)[C@H](O)[C@@H]5O[C@H]5O[C@H](CO)[C@@H](O)[C@H](O)[C@@H]5O)[C@@H]4O)[C@@H](O)[C@H](O[C@H]4O[C@H](CO)[C@@H](O)[C@H](O)[C@@H]4O[C@H]4O[C@H](CO)[C@@H](O)[C@H](O)[C@@H]4O[C@H]4O[C@H](CO)[C@@H](O)[C@H](O)[C@@H]4O)[C@@H]3O)CC2)nn1)NC(=O)[C@H](CCCNC(=N)N)NC(=O)[C@H](Cc1ccc(O)cc1)NC(=O)[C@H](CCC(=O)O)NC(=O)[C@H](CC(C)C)NC(=O)[C@H](CO)NC(=O)[C@H](CC(N)=O)NC(=O)[C@H](CC(C)C)NC(=O)[C@@H](NC(=O)[C@H](CO)NC(=O)[C@H](CCCNC(=N)N)NC(=O)[C@H](CCc1cn(C2CCC(OC3O[C@H](CO[C@H]4O[C@H](CO[C@H]5O[C@H](CO)[C@@H](O)[C@H](O)[C@@H]5O[C@H]5O[C@H](CO)[C@@H](O)[C@H](O)[C@@H]5O)[C@@H](O)[C@H](O[C@H]5O[C@H](CO)[C@@H](O)[C@H](O)[C@@H]5O[C@H]5O[C@H](CO)[C@@H](O)[C@H](O)[C@@H]5O)[C@@H]4O)[C@@H](O)[C@H](O[C@H]4O[C@H](CO)[C@@H](O)[C@H](O)[C@@H]4O[C@H]4O[C@H](CO)[C@@H](O)[C@H](O)[C@@H]4O[C@H]4O[C@H](CO)[C@@H](O)[C@H](O)[C@@H]4O)[C@@H]3O)CC2)nn1)NC=O)[C@@H](C)O)[C@@H](C)O)C(=O)N[C@@H](CCCNC(=N)N)C(=O)N[C@@H](CCc1cn(C2CCC(OC3O[C@H](CO[C@H]4O[C@H](CO[C@H]5O[C@H](CO)[C@@H](O)[C@H](O)[C@@H]5O[C@H]5O[C@H](CO)[C@@H](O)[C@H](O)[C@@H]5O)[C@@H](O)[C@H](O[C@H]5O[C@H](CO)[C@@H](O)[C@H](O)[C@@H]5O[C@H]5O[C@H](CO)[C@@H](O)[C@H](O)[C@@H]5O)[C@@H]4O)[C@@H](O)[C@H](O[C@H]4O[C@H](CO)[C@@H](O)[C@H](O)[C@@H]4O[C@H]4O[C@H](CO)[C@@H](O)[C@H](O)[C@@H]4O[C@H]4O[C@H](CO)[C@@H](O)[C@H](O)[C@@H]4O)[C@@H]3O)CC2)nn1)C(=O)N[C@@H](C)C(=O)N[C@@H](CO)C(=O)N[C@H](C(=O)N1CCC[C@H]1C(=O)N[C@@H](Cc1ccc(O)cc1)C(=O)N[C@H](C(=O)N[C@@H](Cc1ccc(O)cc1)C(=O)N[C@@H](Cc1c[nH]c2ccccc12)C(=O)N[C@@H](Cc1c[nH]c2ccccc12)C(=O)N1CCC[C@H]1C(=O)NCC(=O)N[C@@H](CO)C(=O)NCC(=O)N[C@@H](CO)C(=O)N[C@@H](CC(C)C)C(=O)NCC(=O)N[C@@H](Cc1c[nH]cn1)C(=O)N[C@@H](Cc1c[nH]cn1)C(=O)N[C@@H](Cc1c[nH]cn1)C(=O)N[C@@H](Cc1c[nH]cn1)C(=O)N[C@@H](Cc1c[nH]cn1)C(=O)N[C@@H](Cc1c[nH]cn1)C(=O)N[C@@H](CCCNC(=N)N)C(=O)N[C@@H](CC(=O)O)C(=O)N[C@@H](Cc1ccc(O)cc1)C(=O)N[C@@H](CCCCN)C(=O)N[C@@H](CC(=O)O)C(=O)N[C@@H](CC(=O)O)C(=O)N[C@@H](CC(=O)O)C(=O)N[C@@H](CC(=O)O)C(=O)N[C@@H](CCCCN)C(=O)O)[C@@H](C)O)[C@@H](C)CC (stereo partly shown) [Clone 10F9, XRSTLNSLEYRXQYATEDPRIRXASIPYTYWWP] |  |  | 86 ± 1.2% | 3.1 ± 0.17 nM
